Test results from article PMC5503984, “Characterisation of preproendothelin-1 derived peptides identifies Endothelin-Like Domain Peptide as a modulator of Endothelin-1” (Scientific Reports, 2017).

Columns and labels:
[1] = system: orphan GPCRs; experiment: PathHunter Orphan GPCR biosensor panel (ß-arrestin binding, ß-galactosidase complementation); type: cell-based; conditions: 0.1 µM ELDP, 90 min at room temperature, duplicate, 5000 cells per well; chemiluminescence; no response above three standard deviations of control
Source text: An important component of ET-1-induced vasoconstriction is Ca^2+ influx through voltage-gated L-type Ca^2+ channels, [67]. Modulation of ET-1 responses by ELDP therefore likely involves facilitation of Ca^2+ influx. Responses to norepinephrine and serotonin are also augmented by ET-1, and this has been attributed to increased Ca^2+ influx[68]–[70]. To investigate whether ELDP mediates its effects via a distinct G-protein coupled receptor (GPCR), whose ligand pairing had yet to be assigned, ELDP was evaluated against a panel of cell-expressed orphan GPCRs using a detection system based on ß-arrestin binding (Supplementary Figure S3). […]
arrestin and to the GPCR complementing each other to reconstitute ß-galactosidase activity, which is then measured by chemiluminescence ß-galactosidase assay as an index of receptor binding (1,2).
Orphan GPCR screening for ELDP was undertaken by DiscoverRx Corporation, Fremont, CA 94538, USA. […] At the end of the incubation period chemiluminescent substrate was add, and incubated for 60 min before measurement of relative luminescence (RLU) using a PerkinElmer […]
Data Analysis: Percentage activity was calculated for each test well relative to the mean RLU of the corresponding vehicle-treated GPCR. Results are expressed as mean control (%) ± coefficient of […]

[2] = system: anaesthetised rats; experiment: Mean arterial blood pressure in anaesthetised rats; type: in vivo, rat
Description: Figure 7 Cardiovascular effects of ELDP. […] (B) vasoconstrictor response to ET-1 (1 × 10^−9 M) alone (n = 8) or after pre-incubation with ELDP[162-amide] (10 × 10^−9 M, n = 10); P < 0.002; Student’s t-test. (C) Change in mean arterial blood pressure in anaesthetised rats following ET-1 (0.3 nmol/kg, i.v.) alone (white circles, n = 6) or 15 min after ELDP (3 nmol/kg i.v.) (red circles, n = 6). […] Results are mean ± s.e.m.
All experiments were conducted according to the Animals (Scientific Procedures) Act 1986, UK, and approved by the UK Home Office. Clearance rates of proET-1 peptides and blood pressure effects of ELDP were determined in male Wistar rats (Charles River) anaesthetised with sodium thiopentone (120 mg/kg i.p.). Peptides were administered i.v. via a polyethylene catheter in the left femoral vein. Blood samples (0.5 ml) were collected from a catheter in the left carotid artery into chilled 1.5 ml microcentrifuge tubes containing 50 U/5 µl of heparin. Samples were centrifuged at 12,000 rpm for 2 min at 4 °C. Plasma (50 µl aliquots) samples were stored at −80 °C for subsequent analyses. Blood pressure and heart rate were recorded from the left carotid artery via a polyethylene catheter using Labchart 7.1 (AD Instruments Ltd).

## ALENLLPTKATDRENRCQCASQKDKKCWNFCQAGKELRAEDIMEKDWNNHKKGKDCSKLGKKCIYQQLVRGRKI (disulfide (positions not given here)) [ELDP]
[1]
  receptor – ligand pairing in orphan GPCR screen: failed to identify an ELDP receptor – ligand pair
[2]; 3 nmol/kg i.v., anaesthetised rats
  effect on blood pressure, peptide alone: no effect
[2]; ET-1 0.3 nmol/kg i.v. given 15 min after ELDP 3 nmol/kg i.v., n = 6 per group
  magnitude of the initial pressor response to ET-1: without changing
[2]; ET-1 0.3 nmol/kg i.v. given 15 min after ELDP 3 nmol/kg i.v., n = 6 per group, P < 0.02
  duration of the pressor response to ET-1: significantly increased
